Key:
Format in all cases: cell-based
immune response = assay: Immunomodulation / immune response potentiation (summary); details: for DIP.PAcBA potentiation of Immunpotentiation: DIP.PAcBA salt vs parent compound; for potentiation of the immune response: three test systems of Table 4
Text: (§1) The following three assay procedures are used to evaluate the ability of the test substances to modulate the activity of several classes of cells in the immune system. In these systems it is possible to identify both immunopotentiating activity (evidence by an enhancement of the parameter examined) as well as immunosuppressant activity (evidenced by an inhibition of the parameter examined).
Table 4 above presents the results of an evaluation of a number of these subject compounds as potentiators of the immune response. Three different test systems were used. The first involves a measure of the ability of the test compound to enhance the ability of mouse lymphocytes to proliferate in response to a plant mitogen (Con A). The second involves measuring the ability of the test compounds to enhance human lymphocyte proliferation in response to a second plant mitogen (PHA). The third system measures the ability of these test substances to enhance macrophage proliferation in response to a natural lymphokine (MMF, Macrophage Mitogenic Factor).

[1] = tested on: guinea pig peritoneal macrophages; assay: Lymphokine Induced (MMF) Guinea Pig Macrophage Proliferation
Text: as §1
3. The macrophage represents a subpopulation of white blood cells which is an important component of the immune system in control of both cellular and humoral immunity. The assay system described below evaluates the substances studied as potentiators of macrophage function.
Phytohemagglutinin(PHA) (HA-17) was purchased from Burroughs Wellcome. A preparation containing Macrophage Mitogen Factor (MMF) and Macrophage Activating Factor (MAF) was prepared from antigen-stimulated immune lymph node lymphocytes (guinea pig) as previously described by Hadden et al, Nature 257, 483-485 (1975). […] The active fraction was employed in both the proliferation and activation assays.
Ficoll-hypaque purified human peripheral blood lymphocytes were prepared and PHA-induced lymphocyte proliferation was assayed by the incorporation of tritiated thymidine as described in Hadden et al, Cell. Immunol. 20, 98-103 (1975). Each compound was analyzed in the presence of suboptimal, optimal and supraoptimal concentrations of PHA (0.001, 0.01, 0.1 units/ml respectively). Paraffin oil-induced guinea pig peritoneal macrophages were prepared and incubated as monolayer culture (>98% pure macrophages). Lymphokine (MMF)-induced proliferation was assayed by the incorporation of triturated thymidine at 3 and 5 days of culture as described, Hadden et al, Nature 257, 483-485 (1975). Lymphokine (MAF)-induced macrophage activation to kill Listeria monocytogenes following 5 days of culture in the presence or absence of MAF was performed during a 6 hour period as described in Hadden and England, Immunopharmacology, pages 87-100 (Plenum Press, 1977). Phagocytosis was quantitated during a 20-minute exposure to Listeria monocytogenes by counting the number of macrophages containing bacteria and the number of bacteria per phagocytic cell on gram stained monolayers in Labtek chambers. Intracellular killing of bacteria was evaluated by counting the number of cells containing bacteria and the number of bacteria/cell 6 hours after the initial 20 minute exposure. Parallel experiments in which macrophages were lysed and intracellular bacteria were cultured confirm the validity of bacterial activity determined by this manner in this sytem. The drugs were employed in each of the three systems over serial log concentration range in triplicate in the presence and absence of mitogen or lymphokine. Each type of experiment was performed at least three times. Previous experiments indicate a parallelism of response to pharmacologic modulation in the proliferation and activation assays.

[2] = tested on: Influenza A Swine 1976 (Hlsw -N1); assay: Inhibition of influenza virus replication, Swine 1976
Description: Upon infection of a monolayer of tissue culture cells by influenza virus, the cell surface is altered so that guinea pig erythrocytes can be adsorbed to the cell surface. The number of foci of adsorbed cells (hemadsorption foci forming units HAFFU) is a quantitative measure of infectivity. The method is as follows.
When the Linbro tray HeLa cell cultures were ready for experimentation (see cells), the medium was decanted and 1 ml of maintenance medium (MEM with FCS reduced to 3%) containing the compound being tested at a given concentration was added to 4 replicate cultures within a tray.
A series of different drug concentrations ranging from 2.3 to 150 μg/ml were used. Maintenance medium alone was used for control cultures. After the administration of drug and control medium, 0.1 ml of the diluted viral suspension was added to experimental groups and infected control cultures. Saline alone was added to non-infected control cultures. The Linbro trays were then incubated at 37° C. for 18 hours, after which media in all groups was aspirated. Each culture was washed once with PBS. The saline was aspirated and 0.5 ml of a 0.4% v/v guinea pig red blood cell suspension in PBS was added to each culture well. The cultures remained at room temperature for 30 minutes after which the medium was decanted and culture washed […] with PBS to remove all but the specifically bound red cells. After the third wash, maintenance medium was added to all cultures.
A Howard Micrometer eyepiece (C8385) was inserted within the ocular of a Nikon inverted phase contrast microscope. Each culture was scanned with a 4× low paper objective and direct counts of hemadsorbed red cells were counted using the eyepiece grid as a field marker. Partial or complete fields were counted per experimental group depending on the resulting number and density of hemadsorbed cells in the infected control cultures. Magnification of 60× or 150× were chosen to obtain the best conditions for enumerating the hemadsorbed cells. Field factors were calculated for counting hemadsorption at 60× and 150×. At 60× magnification, total field count was calculated using a multiplication factor of 55.5. At 150× magnification the multiplication factor was 273. The multiplication factors of 55.5 and 273 represent the total number of fields at 60× and 150× magnifications, respectively. The number of fields counted ranged from 3 to 5 per well with 3 to 4 wells per treatment group employed (see raw data tables in results section for number of fields examined). Means and standard errors were calculated and the data was evaluated using student's t-test analysis.

[3] = tested on: human peripheral blood lymphocytes; assay: Mitogen Induced (PHA) Human Lymphocyte Proliferation

Row | SMILES | DIP.PAcBA potentiation of Immunpotentiation (immune response) | potentiation of the immune response (immune response) | Maximum Percent Change, Lymphokine Induced (MMF) Guinea Pig Mac. Prolif. ([1]; 1.0-10, listed as 15418) [%] | Maximum Percent Change, Lymphokine Induced (MMF) Guinea Pig Mac. Prolif. ([1]; 10-100) [%] | Maximum Percent Change, Lymphokine Induced (MMF) Guinea Pig Mac. Prolif. ([1]; .01-1.0) [%] | % Inhibition ([2]; >100 μg/ml) [%] | Maximum Percent Change, Lymphokine Induced (MMF) Guinea Pig Mac. Prolif. ([1]; 1.0-10) [%] | Maximum Percent Change, Mitogen Induced (PHA) Human Lymph. Prolif. ([3]; 1.0-10) [%] | Maximum Percent Change, Mitogen Induced (PHA) Human Lymph. Prolif. ([3]; .01-1.0) | % Inhibition ([2]; 0.1-1.0 μg/ml, listed as 15410) | % Inhibition ([2]; 1.0-10 μg/ml) | % Inhibition ([2]; 0.1-1.0 μg/ml, listed as 15392) | % Inhibition ([2]; 10-100 μg/ml) [%] | Maximum Percent Change, Lymphokine Induced (MMF) Guinea Pig Mac. Prolif. ([1]; 1.0-10, listed as 15417) [%] | Maximum Percent Change, Mitogen Induced (PHA) Human Lymph. Prolif. ([3]; 10-100) [%]
1 | CCCCCCC(CO)n1cnc2c(=O)[nH]cnc21 (stereo not drawn) [NPT 15418] | Yes | Significant potentiation | 80 | -50 | 12 | > 70 | – | – | – | – | – | – | – | – | –
2 | CCCCCC[C@H]([C@H](C)O)n1cnc2c(=O)[nH]cnc21 (relative stereo) [NPT 15410] | Yes | Significant potentiation | – | – | 12 | – | 23 | 60 | 30-50% | 50-70% | 30-50% | – | – | – | –
3 | CCCCCC[C@H]([C@H](C)O)n1cnc2c(=O)[nH]cnc21 (relative stereo) [NPT 15392, Erythro-9-(2-Hydroxy-3-Nonyl)Hypoxanthine] | – | Significant potentiation | – | – | – | > 70 | – | – | – | – | – | 30-50% | > 70 | – | –
4 | CCCCCCC(CO)n1cnc2c(=O)[nH]cnc21 (stereo not drawn) [NPT 15417] | – | – | – | -50 | – | – | – | 0 | 0% | – | – | – | > 70 | 13 | -50

From patent US4221909A, “P-Acetamidobenzoic acid salts of 9-(hydroxyalkyl) purines” (Sloan-Kettering Institute for Cancer Research, priority 1978, dated 1980)
